Measured values from US8247211B2, “Glycopeptide antibiotics” (American Cyanamid Company, priority 2001, dated 2012).
≈ marks a conversion by molar mass, not a printed value.

How the values were obtained:
Enterococcus sp. = assay: In vitro antibacterial evaluation: minimum inhibitory concentration (MIC), broth dilution method; format: cell-based; conditions: broth dilution, 5×10^5 CFU/mL, 18 hours at 35° C.
In short: (§1)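 NCCLS M7-A2 broth dilution; Muller-Hinton II […]; 5×10^5 CFU/mL; 64-0.06 μg/mL. MIC = lowest concentration with no growth.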

Escherichia coli = assay: as above; format: cell-based; conditions: 5×10^5 CFU/mL, 18 hours at 35° C.
In short: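 Values are minimum inhibitory concentrations, meaning the smallest antibiotic concentration that stops growth of the organism. They come from broth dilution in Muller-Hinton II […] per NCCLS guidance (M7-A2), using 5×10^5 CFU/mL and concentrations from 64 to 0.06 μg/mL.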

Staphylococcus sp. = assay: as above; format: cell-based; conditions: for MIC Staphylococcus aureus-SMITH (GC 4543): strain GC 4543; for MIC Staphylococcus haemolyticus (GC 4546): strain GC 4546; for MIC Coagulase Negative Staphylococcus (GC 4547): strain GC 4547; for MIC Coagulase Negative Staphylococcus (GC 4548): strain GC 4548; for MIC Coagulase Negative Staphylococcus (GC 4549): strain GC 4549; for MIC Coagulase Negative Staphylococcus (GC 4551): strain GC 4551; for MIC Coagulase Negative Staphylococcus (ID-3941): strain ID-3941
In short: as §1

Streptococcus sp. = assay: as above; format: cell-based; conditions: broth dilution, 5×10^5 CFU/mL, 18 hours at 35° C.
In short: as §1

[1] = tested on: Enterococcus faecalis (GC 2246), vancomycin resistant strain; assay: Acute lethal infection in mice (ED50); format: in vivo; conditions: female CD-1 mice, intraperitoneal challenge, intravenous dose 30 min. after infection, 7 day survival ratios
In short: (§2)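 IP bacterial challenge, female CD-1 mice; inoculum lethal to untreated controls in 24-48 hr. IV dosing in saline or 5% dextrose 30 min post-infection, 5 mice/dose. ED50 from 7-day survival, 3 tests pooled.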

[2] = tested on: Staphylococcus aureus-SMITH (GC 4543); assay: Acute lethal infection in mice (ED50); format: in vivo; conditions: female CD-1 mice, intraperitoneal challenge, intravenous dose 30 min. after infection, 7 day survival ratios
In short: as §2

[3] = broth dilution, 18 hours at 35° C.

CCCC(CCC)C(=O)OCC1OC(OC2C(CO)OC(Oc3ccc(CC4NC(=O)C(C(C)c5ccccc5)NC(=O)CNC(=O)C(CO)NC(=O)C(C(O)C5CNC(=N)N5C5OC(CO)C(O)C(O)C5O)NC(=O)C(C(O)C5CNC(=N)N5)NC4=O)cc3)C(O)C2O)C(O)C(O)C1O (stereo not drawn) [Example 99c, Cyclo[glycyl-β-methylphenylalanyl-O-[4-O-[6-O-(2-propylpentanoyl)hexopyranosyl]-hexopyranosyl]tyrosyl-3-(2-iminoimidazolidin-4-yl)seryl-3-(3-hexopyranosyl-2-iminoimidazolidin-4-yl)serylseryl]]
MIC Enterococccus avium (GC 4558) (Enterococcus sp.): 4 µg/mL (≈ 2.81 µM)
MIC Enterococccus faecalis (ATCC 29212) (Enterococcus sp.): 4 µg/mL (≈ 2.81 µM)
MIC Enterococccus faecalis (GC 4552) (Enterococcus sp.): 4 µg/mL (≈ 2.81 µM)
MIC Enterococccus faecalis (GC 4553) (Enterococcus sp.): 4 µg/mL (≈ 2.81 µM)
MIC Enterococccus faecalis (GC 4554) (Enterococcus sp.): 4 µg/mL (≈ 2.81 µM)
MIC Enterococccus faecium (GC 2243) (Enterococcus sp.): 4 µg/mL (≈ 2.81 µM)
MIC Enterococccus faecium (GC 4556) (Enterococcus sp.): 4 µg/mL (≈ 2.81 µM)
MIC Enterococccus faecium (GC 4557) (Enterococcus sp.): 2 µg/mL (≈ 1.41 µM)
MIC Enterococcus faecalis (GC 2242) (Enterococcus sp.): 4 µg/mL (≈ 2.81 µM)
MIC Escherichia coli (ATCC 25922) (Escherichia coli): 64 µg/mL (≈ 45 µM)
MIC Staphylococcus aureus (ATCC 29213) (Staphylococcus sp.; strain ATCC 29213): 1 µg/mL (≈ 0.703 µM)
MIC Staphylococcus aureus (GC 1131) (Staphylococcus sp.; strain GC 1131): 2 µg/mL (≈ 1.41 µM)
MIC Staphylococcus aureus (GC 4541) (Staphylococcus sp.; strain GC 4541): 2 µg/mL (≈ 1.41 µM)
MIC Staphylococcus aureus (GC 4542) (Staphylococcus sp.; strain GC 4542): 1 µg/mL (≈ 0.703 µM)
MIC Staphylococcus aureus-SMITH (GC 4543) (Staphylococcus sp.; 18 hours at 35° C.): 1 µg/mL (≈ 0.703 µM)
MIC Staphylococcus aureus-SMITH (GC 4543) (Staphylococcus sp.; [3]): 1 µg/mL (≈ 0.703 µM)
MIC Staphylococcus aureus (GC 4544) (Staphylococcus sp.; strain GC 4544): 2 µg/mL (≈ 1.41 µM)
MIC Staphylococcus aureus (GC 4545) (Staphylococcus sp.; strain GC 4545): 1 µg/mL (≈ 0.703 µM)
MIC Staphylococcus haemolyticus (GC 4546) (Staphylococcus sp.): 1 µg/mL (≈ 0.703 µM)
MIC Staphylococcus haemolyticus (GC 4546) (Staphylococcus sp.; [3]): 1 µg/mL (≈ 0.703 µM)
MIC Coagulase Negative Staphylococcus (GC 4547) (Staphylococcus sp.): 1 µg/mL (≈ 0.703 µM)
MIC Coagulase Negative Staphylococcus (GC 4547) (Staphylococcus sp.; [3]): 1 µg/mL (≈ 0.703 µM)
MIC Coagulase Negative Staphylococcus (GC 4548) (Staphylococcus sp.): 1 µg/mL (≈ 0.703 µM)
MIC Coagulase Negative Staphylococcus (GC 4548) (Staphylococcus sp.; [3]): 1 µg/mL (≈ 0.703 µM)
MIC Coagulase Negative Staphylococcus (GC 4549) (Staphylococcus sp.): 1 µg/mL (≈ 0.703 µM)
MIC Coagulase Negative Staphylococcus (GC 4549) (Staphylococcus sp.; [3]): 1 µg/mL (≈ 0.703 µM)
MIC Coagulase Negative Staphylococcus (GC 4551) (Staphylococcus sp.): 2 µg/mL (≈ 1.41 µM)
MIC Coagulase Negative Staphylococcus (GC 4551) (Staphylococcus sp.; [3]): 2 µg/mL (≈ 1.41 µM)
MIC Coagulase Negative Staphylococcus (ID-3941) (Staphylococcus sp.): 1 µg/mL (≈ 0.703 µM)
MIC Coagulase Negative Staphylococcus (ID-3941) (Staphylococcus sp.; [3]): 1 µg/mL (≈ 0.703 µM)
MIC Streptococcus agalactiae (GC 4564) (Streptococcus sp.): <0.5 µg/mL
MIC Streptococcus pneumoniae (GC 4565) (Streptococcus sp.): <0.5 µg/mL
MIC Streptococcus pyogenes (ID-3187) (Streptococcus sp.): <0.5 µg/mL
median effective dose (ED50), Enterococcus faecalis (GC 2246) [1]: 4.3 mg/kg
median effective dose (ED50), Staphylococcus aureus-SMITH (GC 4543) [2]: 0.52 mg/kg
